From PubChem BioAssay (NCI)
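48-hour exposure; five concentrations; linearly interpolated endpoints. GI50 marks 50% less growth. The concentration for full growth arrest is given as TGI.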

Key:
Assay in all cases: growth of human tumour cells (NCI), 48 h
T-47D breast = tested on: T-47D breast
IGROV1 ovarian = tested on: IGROV1 ovarian
NCI-H23 lung = tested on: NCI-H23 lung
MCF7 breast = tested on: MCF7 breast
A498 renal = tested on: A498 renal
SK-MEL-5 melanoma = tested on: SK-MEL-5 melanoma
NCI/ADR-RES ovarian = tested on: NCI/ADR-RES ovarian
NCI-H226 lung = tested on: NCI-H226 lung
PC-3 prostate = tested on: PC-3 prostate
TK-10 renal = tested on: TK-10 renal
NCI-H522 lung = tested on: NCI-H522 lung
MDA-MB-435 = tested on: MDA-MB-435
SF-295 CNS = tested on: SF-295 CNS
OVCAR-8 ovarian = tested on: OVCAR-8 ovarian
SNB-19 CNS = tested on: SNB-19 CNS
KM12 colon = tested on: KM12 colon
HCC-2998 colon = tested on: HCC-2998 colon
SNB-75 CNS = tested on: SNB-75 CNS
786-0 renal = tested on: 786-0 renal
M14 melanoma = tested on: M14 melanoma
SK-MEL-28 melanoma = tested on: SK-MEL-28 melanoma
COLO 205 colon = tested on: COLO 205 colon
CCRF-CEM leukemia = tested on: CCRF-CEM leukemia
UACC-62 melanoma = tested on: UACC-62 melanoma
UO-31 renal = tested on: UO-31 renal
ACHN renal = tested on: ACHN renal
UACC-257 melanoma = tested on: UACC-257 melanoma
DU-145 prostate = tested on: DU-145 prostate
A549 NSCLC = tested on: A549 NSCLC
HS 578T breast = tested on: HS 578T breast
K-562 leukemia = tested on: K-562 leukemia
SW-620 colon = tested on: SW-620 colon
NCI-H460 lung = tested on: NCI-H460 lung
SN12C renal = tested on: SN12C renal
SR leukemia = tested on: SR leukemia
OVCAR-4 ovarian = tested on: OVCAR-4 ovarian
HOP-62 NSCLC = tested on: HOP-62 NSCLC
SF-268 CNS = tested on: SF-268 CNS
HT29 colon = tested on: HT29 colon
HCT-116 colon = tested on: HCT-116 colon
RXF 393 renal = tested on: RXF 393 renal
HL-60(TB) leukemia = tested on: HL-60(TB) leukemia
RPMI-8226 leukemia = tested on: RPMI-8226 leukemia
SK-OV-3 ovarian = tested on: SK-OV-3 ovarian
MALME-3M melanoma = tested on: MALME-3M melanoma
MOLT-4 leukemia = tested on: MOLT-4 leukemia
MDA-MB-231 breast = tested on: MDA-MB-231 breast
BT-549 breast = tested on: BT-549 breast
CAKI-1 renal = tested on: CAKI-1 renal
SF-539 CNS = tested on: SF-539 CNS
OVCAR-3 ovarian = tested on: OVCAR-3 ovarian
HCT-15 colon = tested on: HCT-15 colon
OVCAR-5 ovarian = tested on: OVCAR-5 ovarian

`FC(F)(F)c1ccc(-c2cnc(Cl)nc2NC2CCCCCC2)cc1` showed a GI50 (T-47D breast) of 19.1 µM, a TGI (T-47D breast) greater than 100 µM and a GI50 (IGROV1 ovarian) greater than 100 µM. It also gave a TGI (IGROV1 ovarian) greater than 100 µM, a GI50 (NCI-H23 lung) of 61.1 µM and a TGI (NCI-H23 lung) greater than 100 µM. For the same compound, the GI50 (MCF7 breast) was 31.2 µM, the TGI (MCF7 breast) was greater than 100 µM and the GI50 (A498 renal) was greater than 100 µM. For the same compound, the TGI (A498 renal) was greater than 100 µM, the GI50 (SK-MEL-5 melanoma) was 62.8 µM and the TGI (SK-MEL-5 melanoma) was greater than 100 µM. The GI50 (NCI/ADR-RES ovarian) was greater than 100 µM, the TGI (NCI/ADR-RES ovarian) was greater than 100 µM and the GI50 (NCI-H226 lung) was greater than 100 µM. The TGI (NCI-H226 lung) was greater than 100 µM, the GI50 (PC-3 prostate) was 28.7 µM and the TGI (PC-3 prostate) was greater than 100 µM. The GI50 (TK-10 renal) was greater than 100 µM, the TGI (TK-10 renal) was greater than 100 µM and the GI50 (NCI-H522 lung) was 45.4 µM. For the same compound, the TGI (NCI-H522 lung) was greater than 100 µM, the GI50 (MDA-MB-435) was greater than 100 µM and the TGI (MDA-MB-435) was greater than 100 µM. For the same compound, the GI50 (SF-295 CNS) was 69.7 µM, the TGI (SF-295 CNS) was greater than 100 µM and the GI50 (OVCAR-8 ovarian) was greater than 100 µM. It also gave a TGI (OVCAR-8 ovarian) greater than 100 µM, a GI50 (SNB-19 CNS) greater than 100 µM and a TGI (SNB-19 CNS) greater than 100 µM. It also gave a GI50 (KM12 colon) of 97.1 µM, a TGI (KM12 colon) greater than 100 µM and a GI50 (HCC-2998 colon) greater than 100 µM. For the same compound, the TGI (HCC-2998 colon) was greater than 100 µM, the GI50 (SNB-75 CNS) was 80.6 µM and the TGI (SNB-75 CNS) was greater than 100 µM. It also gave a GI50 (786-0 renal) greater than 100 µM, a TGI (786-0 renal) greater than 100 µM and a GI50 (M14 melanoma) greater than 100 µM. The TGI (M14 melanoma) was greater than 100 µM, the GI50 (SK-MEL-28 melanoma) was greater than 100 µM and the TGI (SK-MEL-28 melanoma) was greater than 100 µM. The GI50 (COLO 205 colon) was 95.5 µM, the TGI (COLO 205 colon) was greater than 100 µM and the GI50 (CCRF-CEM leukemia) was 27.9 µM. For the same compound, the TGI (CCRF-CEM leukemia) was greater than 100 µM, the GI50 (UACC-62 melanoma) was greater than 100 µM and the TGI (UACC-62 melanoma) was greater than 100 µM. The GI50 (UO-31 renal) was greater than 100 µM, the TGI (UO-31 renal) was greater than 100 µM and the GI50 (ACHN renal) was greater than 100 µM. For the same compound, the TGI (ACHN renal) was greater than 100 µM, the GI50 (UACC-257 melanoma) was greater than 100 µM and the TGI (UACC-257 melanoma) was greater than 100 µM. For the same compound, the GI50 (DU-145 prostate) was greater than 100 µM, the TGI (DU-145 prostate) was greater than 100 µM and the GI50 (A549 NSCLC) was greater than 100 µM. It also gave a TGI (A549 NSCLC) greater than 100 µM, a GI50 (HS 578T breast) greater than 100 µM and a TGI (HS 578T breast) greater than 100 µM. For the same compound, the GI50 (K-562 leukemia) was 54.1 µM, the TGI (K-562 leukemia) was greater than 100 µM and the GI50 (SW-620 colon) was greater than 100 µM. It also gave a TGI (SW-620 colon) greater than 100 µM, a GI50 (NCI-H460 lung) of 73.1 µM and a TGI (NCI-H460 lung) greater than 100 µM. It also gave a GI50 (SN12C renal) greater than 100 µM, a TGI (SN12C renal) greater than 100 µM and a GI50 (SR leukemia) of 38.9 µM. For the same compound, the TGI (SR leukemia) was greater than 100 µM, the GI50 (OVCAR-4 ovarian) was 38.7 µM and the TGI (OVCAR-4 ovarian) was greater than 100 µM. It also gave a GI50 (HOP-62 NSCLC) greater than 100 µM, a TGI (HOP-62 NSCLC) greater than 100 µM and a GI50 (SF-268 CNS) greater than 100 µM. For the same compound, the TGI (SF-268 CNS) was greater than 100 µM, the GI50 (HT29 colon) was 71.1 µM and the TGI (HT29 colon) was greater than 100 µM. For the same compound, the GI50 (HCT-116 colon) was 35.5 µM, the TGI (HCT-116 colon) was greater than 100 µM and the GI50 (RXF 393 renal) was greater than 100 µM. For the same compound, the TGI (RXF 393 renal) was greater than 100 µM, the GI50 (HL-60(TB) leukemia) was 24.9 µM and the TGI (HL-60(TB) leukemia) was greater than 100 µM. It also gave a GI50 (RPMI-8226 leukemia) of 8.03 µM, a TGI (RPMI-8226 leukemia) greater than 100 µM and a GI50 (SK-OV-3 ovarian) greater than 100 µM. It also gave a TGI (SK-OV-3 ovarian) greater than 100 µM, a GI50 (MALME-3M melanoma) greater than 100 µM and a TGI (MALME-3M melanoma) greater than 100 µM. The GI50 (MOLT-4 leukemia) was 32.7 µM, the TGI (MOLT-4 leukemia) was greater than 100 µM and the GI50 (MDA-MB-231 breast) was 36.4 µM. It also gave a TGI (MDA-MB-231 breast) greater than 100 µM, a GI50 (BT-549 breast) greater than 100 µM and a TGI (BT-549 breast) greater than 100 µM. For the same compound, the GI50 (CAKI-1 renal) was 57.4 µM, the TGI (CAKI-1 renal) was greater than 100 µM and the GI50 (SF-539 CNS) was greater than 100 µM. The TGI (SF-539 CNS) was greater than 100 µM, the GI50 (OVCAR-3 ovarian) was greater than 100 µM and the TGI (OVCAR-3 ovarian) was greater than 100 µM. For the same compound, the GI50 (HCT-15 colon) was greater than 100 µM, the TGI (HCT-15 colon) was greater than 100 µM and the GI50 (OVCAR-5 ovarian) was greater than 100 µM. The TGI (OVCAR-5 ovarian) was greater than 100 µM.
